Measurements from paper PMC1082716, “Blockade of chemokine-induced signalling inhibits CCR5-dependent HIV infection in vitro without blocking gp120/CCR5 interaction” (Retrovirology, 2005).
“Also recorded” adds a separate entry of the source.

Legend:
[1] = system: chemokine receptor internalisation; conditions: ref [27]; cited from earlier work
From the text: Since BSCIs, such as Peptide 3, ...

HIV (IIIb) = HIV (IIIb) replication in Jurkat T-cells, supernatant reverse transcriptase activity; format: cell-based; conditions: HIV-1 IIIb 10^6 TCID50; Peptide 3 100 μM; two weeks; six separate experiments
Experimental: (§1) HIV infection of Jurkat T-cells using the laboratory-adapted T-tropic isolate IIIb was monitored using two different assays. Firstly, Jurkat T-cells in 96-well plates were pre-treated with either Peptide 3, vehicle (as a negative control) or SDF1α (as a positive control) for 4 hours, then exposed to HIV virus (10^6 TCID50) and pulsed at 2–3 day intervals with Peptide 3, SDF1α or medium alone as appropriate. After two weeks in culture, the extent of viral infection was assayed by measuring the reverse transcriptase activity in the supernatant, as a measure of viral replication in the culture In six separate experiments, Peptide 3 (100 μM) had no effect on virus replication following HIV exposure (Fig 3a), while SDF1α inhibited reverse transcriptase activity by an average of 75%. No effect was seen on cell viability under any of the treatment conditions.
HIV-1 stocks were prepared in the following manner. HIV-1 IIIb (provided by the MRC AIDS Reagent Programme) was used to infect Jurkat T cells and the progression of infection was monitored using the reverse transcriptase assay for 10–14 days. […] Stocks of HIV-1 MN strain were prepared in a similar manner, except that H9 T cells were used and the progression of infection was monitored by immunofluoresence (because of the low RT activity) in this strain. […]

[2] = system: CXCR4-dependent infection of Jurkat T cells; assay: CXCR4-dependent HIV infection of Jurkat T cells (assay not specified); format: cell-based, HIV-1
Experimental: as §1, with “No effect was seen on cell viability under any of the treatment conditions.” left out
HIV infection of Jurkat T-cells was also monitored by high sensitivity quantitative immunofluoresence detection of viral p24^gag expression. […] Expression of p24^gag was determined using quantitative immunofluoresence as previously described, except that the primary antibody was post-fixed to the section using paraformaldehyde to increase the sensitivity of the technique (see Methods). Viral infectivity was expressed as the number of cells stained for p24^gag expressed as a proportion of the total number of cells (detected using Hoechst 33342 nuclear dye). […]

CCR5 = assay: Specific binding of biotinylated gp120:V3(BaL) peptide to THP-1 cells; conditions: 100 μM biotinylated gp120:V3(BaL); various concentrations of Peptide 3; 10^6 cells in 100 μl, 4°C; non-specific binding (10 mM unlabelled peptide) subtracted
Experimental: The binding of gp120 to chemokine receptors is likely to involve sequences in the V3 loop of gp120 [28, 20]. We therefore synthesised peptide sequences from the V3 loop of the M-tropic BaL strain and the T-tropic IIIb strain and analysed the binding of these biotinylated peptides to the THP-1 and Jurkat cells. Specific (competable) binding of gp120:V3(BaL) to THP-1 cells was detected at 100 μM (Fig 1a). In contrast, specific binding of gp120:V3(BaL) to Jurkat cells was not detected even at concentrations up to 500 μM (Fig 1a). […]
Figure 1 Specific binding of gp120:V3 loop peptides to THP-1 and Jurkat cells. […] Specific binding is expressed as the absorbance in the absence of unlabelled peptide minus the absorbance in the presence of competitor (b) Binding of gp120:V3(IIIb)-biotin under the same conditions as in (a). […]
Cells (either Jurkat T-cells or THP-1 cells) were grown in RPMI 1640 medium supplemented with 10% fetal calf serum, 2 mM glutamine, 20 μM β-mercaptoethanol, 100 U/ml penicillin and 100 μg/ml streptomycin and maintained between 2 × 10^5 and 1 × 10^6 cells/ml. […] The plate was spun (3,000 × g; 3 mins) and 200 μl of the coloured product was transferred to an empty 96-well ELISA plate and the absorbance at 450 nm determined.

CXCR4 = target: T1, CXCR4 (Homo sapiens, UniProt P61073); assay: Specific binding of biotinylated gp120:V3(IIIb) peptide to Jurkat cells; conditions: 100 μM biotinylated gp120:V3(IIIb); various concentrations of inhibitor; 10^6 cells in 100 μl, 4°C; triplicate
T1 construct: CXCR4, which is expressed on both THP-1 and Jurkat cells, but at higher levels on the T-cell line; endogenous in cells; host or cells: Jurkat T-cells (whole cells, 10^6 per well, 4°C)
T1 sequence (P61073 whole entry): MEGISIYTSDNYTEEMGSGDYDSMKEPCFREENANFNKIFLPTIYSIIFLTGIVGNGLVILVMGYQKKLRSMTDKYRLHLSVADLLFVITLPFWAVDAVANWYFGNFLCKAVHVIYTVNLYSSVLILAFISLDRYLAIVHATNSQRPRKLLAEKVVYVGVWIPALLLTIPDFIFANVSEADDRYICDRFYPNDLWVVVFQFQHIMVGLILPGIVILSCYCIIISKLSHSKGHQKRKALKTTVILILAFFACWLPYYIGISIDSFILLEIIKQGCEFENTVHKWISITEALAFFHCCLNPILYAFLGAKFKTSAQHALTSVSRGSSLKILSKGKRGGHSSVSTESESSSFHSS

For EICADPKQKWVQ [Peptide 3], the “Effect on chemokine receptor internalisation induced by ligand binding” value [1] is listed as “do not block”, the “Effect on virus replication following HIV exposure (reverse transcriptase activity)” value (HIV (IIIb)) is listed as “no effect” and the “Effect on CXCR4-dependent HIV infection of Jurkat T cells” value [2] is listed as “did not affect; also recorded: no effect”. The “Effect on gp120 binding to CCR5 (gp120:V3(BaL) to THP-1 cells)” value (CCR5) was “no effect; also recorded: unaffected” and the “Effect on binding of gp120:V3(IIIb) to Jurkat cells” value (CXCR4) was “no effect”.
